According to ChEMBL document CHEMBL3588758, “Structure-Affinity Relationships (SARs) and Structure-Kinetics Relationships (SKRs) of Kv11.1 Blockers” (J Med Chem, 2015):

What was measured:
[1] = molecular target: T1, Voltage-gated inwardly rectifying potassium channel KCNH2 (Homo sapiens, UniProt Q12809)
[2] = molecular target: T1, Voltage-gated inwardly rectifying potassium channel KCNH2; remark: listed apart in the source
[3] = molecular target: T2, Kv11.1 (KCNH2, hERG) (Homo sapiens, UniProt Q12809); experiment: in vitro
[4] = molecular target: T2, Kv11.1 (KCNH2, hERG); experiment: in vitro; remark: listed apart in the source
[5] = molecular target: T2, Kv11.1 (KCNH2, hERG); experiment: in vitro; remark: listed apart in the source
[6] = molecular target: T1, Voltage-gated inwardly rectifying potassium channel KCNH2; remark: listed apart in the source
Description: Inhibition of human Kv11.1 expressed in HEK293 cells assessed as inhibition of channel tail current at holding potential -80 mV by whole cell voltage clamp assay

T2 sequence (Q12809 whole entry): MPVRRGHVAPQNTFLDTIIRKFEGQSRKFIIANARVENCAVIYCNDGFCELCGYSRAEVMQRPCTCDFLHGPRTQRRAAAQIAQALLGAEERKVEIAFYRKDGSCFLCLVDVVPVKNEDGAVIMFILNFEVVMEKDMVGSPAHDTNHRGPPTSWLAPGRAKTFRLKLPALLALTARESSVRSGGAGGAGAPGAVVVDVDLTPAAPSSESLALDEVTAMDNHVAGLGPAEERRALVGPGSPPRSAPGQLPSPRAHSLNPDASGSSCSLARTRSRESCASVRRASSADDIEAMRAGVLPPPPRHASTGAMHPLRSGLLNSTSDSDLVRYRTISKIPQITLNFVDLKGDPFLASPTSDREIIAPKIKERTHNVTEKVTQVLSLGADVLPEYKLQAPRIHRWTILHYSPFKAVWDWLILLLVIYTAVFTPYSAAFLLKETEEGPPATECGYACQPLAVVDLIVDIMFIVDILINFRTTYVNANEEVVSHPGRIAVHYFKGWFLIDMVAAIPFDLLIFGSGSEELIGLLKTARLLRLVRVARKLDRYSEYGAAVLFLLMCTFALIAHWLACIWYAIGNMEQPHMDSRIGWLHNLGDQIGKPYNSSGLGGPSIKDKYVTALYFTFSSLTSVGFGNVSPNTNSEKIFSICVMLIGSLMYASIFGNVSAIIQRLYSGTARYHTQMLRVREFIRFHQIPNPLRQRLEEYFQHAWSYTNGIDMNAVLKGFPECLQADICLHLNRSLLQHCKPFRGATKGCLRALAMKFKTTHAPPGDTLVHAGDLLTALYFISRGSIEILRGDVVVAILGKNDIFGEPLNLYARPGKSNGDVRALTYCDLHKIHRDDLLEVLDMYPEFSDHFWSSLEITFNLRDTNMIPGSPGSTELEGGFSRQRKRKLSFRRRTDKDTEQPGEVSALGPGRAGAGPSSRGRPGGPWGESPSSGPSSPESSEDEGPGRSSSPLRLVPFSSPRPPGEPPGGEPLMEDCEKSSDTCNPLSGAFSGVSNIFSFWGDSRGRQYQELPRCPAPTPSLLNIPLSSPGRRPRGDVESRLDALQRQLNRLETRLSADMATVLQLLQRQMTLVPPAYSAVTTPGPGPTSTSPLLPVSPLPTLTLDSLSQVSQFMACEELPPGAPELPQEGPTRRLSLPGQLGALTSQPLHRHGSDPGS
T1 sequence (Q12809 whole entry): as above

O=C(c1ccccc1)N1CCN(CCc2ccccc2)CC1
Ki [1]: 5.42 µM | Kd [2]: 1.81 µM | kon ([3]; hek293, probe [3H]dofetilide): 4500 M⁻¹ s⁻¹ | koff ([4]; hek293, probe [3H]dofetilide): 0.00767 s⁻¹ | residence time ([5]; hek293, probe [3H]dofetilide): 2.2 min

C[n+]1c(C#Cc2ccc(-c3ccccc3)cc2)cccc1C#Cc1ccc(-c2ccccc2)cc1
Ki [1]: 0.086 µM | Kd [2]: 0.132 µM | IC50 [6]: 0.107 µM | kon ([3]; hek293): 1250 M⁻¹ s⁻¹ | koff ([4]; hek293): 0.000158 s⁻¹ | residence time ([5]; hek293): 105 min

CCCCCCC[N+](CC)(CC)CC#Cc1ccc(Cl)cc1
Ki [1]: 0.0018 µM | Kd [2]: 0.0012 µM | kon ([3]; hek293): 2.83e+06 M⁻¹ s⁻¹ | koff ([4]; hek293): 0.00217 s⁻¹ | residence time ([5]; hek293): 7.7 min

O=[N+]([O-])c1ccc(CCNCCOc2ccc([N+](=O)[O-])cc2)cc1
Ki [1]: 0.047 µM | Kd [2]: 0.053 µM | kon ([3]; hek293): 90000 M⁻¹ s⁻¹ | koff ([4]; hek293): 0.0045 s⁻¹ | residence time ([5]; hek293): 3.7 min

CN(CCOc1ccc([N+](=O)[O-])cc1)CCc1ccc([N+](=O)[O-])cc1
Ki [1]: 0.024 µM | Kd [2]: 0.02 µM | kon ([3]; hek293): 683000 M⁻¹ s⁻¹ | koff ([4]; hek293): 0.0137 s⁻¹ | residence time ([5]; hek293): 1.2 min

CCN(CCOc1ccc([N+](=O)[O-])cc1)CCc1ccc([N+](=O)[O-])cc1
Ki [1]: 0.0042 µM | Kd [2]: 0.003 µM | kon ([3]; hek293, probe [3H]dofetilide): 2.5e+06 M⁻¹ s⁻¹ | koff ([4]; hek293, probe [3H]dofetilide): 0.00433 s⁻¹ | residence time ([5]; hek293, probe [3H]dofetilide): 3.8 min

N#CCN(CCOc1ccc([N+](=O)[O-])cc1)CCc1ccc([N+](=O)[O-])cc1
Ki [1]: 0.203 µM | Kd [2]: 0.099 µM | kon ([3]; hek293): 76700 M⁻¹ s⁻¹ | koff ([4]; hek293): 0.00667 s⁻¹ | residence time ([5]; hek293): 2.5 min

CC(=O)N(CCOc1ccc([N+](=O)[O-])cc1)CCc1ccc([N+](=O)[O-])cc1
Ki [1]: 0.251 µM | Kd [2]: 0.132 µM | kon ([3]; hek293, probe [3H]dofetilide): 163000 M⁻¹ s⁻¹ | koff ([4]; hek293, probe [3H]dofetilide): 0.03 s⁻¹ | residence time ([5]; hek293, probe [3H]dofetilide): 0.56 min

O=C(N(CCOc1ccc([N+](=O)[O-])cc1)CCc1ccc([N+](=O)[O-])cc1)C(F)(F)F
Ki [1]: 0.355 µM | Kd [2]: 0.247 µM | kon ([3]; hek293): 41700 M⁻¹ s⁻¹ | koff ([4]; hek293): 0.0102 s⁻¹ | residence time ([5]; hek293): 1.6 min

CN(CCCCOc1ccc([N+](=O)[O-])cc1)CCc1ccc([N+](=O)[O-])cc1
Ki [1]: 0.0016 µM | Kd [2]: 0.00073 µM | kon ([3]; hek293): 1.07e+07 M⁻¹ s⁻¹ | koff ([4]; hek293): 0.00433 s⁻¹ | residence time ([5]; hek293): 3.8 min

CN(CCOc1ccc(Cl)c(Cl)c1)CCc1ccc(Cl)c(Cl)c1
Ki [1]: 5.57 µM | Kd [2]: 5.81 µM | kon ([3]; hek293, probe [3H]dofetilide): 1030 M⁻¹ s⁻¹ | koff ([4]; hek293, probe [3H]dofetilide): 0.00317 s⁻¹ | residence time ([5]; hek293, probe [3H]dofetilide): 5.3 min

COc1ccc(CCN(C)CCOc2ccccc2)cc1
Ki [1]: 0.944 µM | Kd [2]: 0.591 µM | kon ([3]; hek293, probe [3H]dofetilide): 9330 M⁻¹ s⁻¹ | koff ([4]; hek293, probe [3H]dofetilide): 0.005 s⁻¹ | residence time ([5]; hek293, probe [3H]dofetilide): 3.3 min

O=C(c1ccc(Cl)cc1)C1CCN(CCc2ccc(Cl)c(Cl)c2)CC1
Ki [1]: 0.054 µM | Kd [2]: 0.036 µM | kon ([3]; hek293): 350000 M⁻¹ s⁻¹ | koff ([4]; hek293): 0.0065 s⁻¹ | residence time ([5]; hek293): 2.6 min

C[N+]1(CCc2ccccc2)CCC(C(=O)c2ccc(Cl)cc2)CC1 (configuration not stated)
Ki [1]: 0.048 µM | Kd [2]: 0.018 µM | kon ([3]; hek293): 800000 M⁻¹ s⁻¹ | koff ([4]; hek293): 0.00583 s⁻¹ | residence time ([5]; hek293): 2.9 min

CCCN(CC)CC#Cc1ccc(C)cc1
Ki [1]: 1.2 µM | Kd [2]: 0.637 µM | kon ([3]; hek293, probe [3H]dofetilide): 5170 M⁻¹ s⁻¹ | koff ([4]; hek293, probe [3H]dofetilide): 0.0025 s⁻¹ | residence time ([5]; hek293, probe [3H]dofetilide): 6.7 min

CCCCCCCCc1cccc(CCCCCCCC)n1
Ki [1]: 36.9 µM | Kd [2]: 191 µM | kon ([3]; hek293): 4.67 M⁻¹ s⁻¹ | koff ([4]; hek293): 0.000867 s⁻¹ | residence time ([5]; hek293): 19 min

CCCCCCc1cccc(CCCCCC)[n+]1C
Ki [1]: 0.012 µM | Kd [2]: 0.012 µM | kon ([3]; hek293): 333000 M⁻¹ s⁻¹ | koff ([4]; hek293): 0.00383 s⁻¹ | residence time ([5]; hek293): 4.3 min

CCCCCCCc1cccc(CCCCCCC)[n+]1C
Ki [1]: 0.00028 µM | Kd [2]: 0.00044 µM | kon ([3]; hek293, probe [3H]dofetilide): 4.17e+06 M⁻¹ s⁻¹ | koff ([4]; hek293, probe [3H]dofetilide): 0.00167 s⁻¹ | residence time ([5]; hek293, probe [3H]dofetilide): 10 min

CCCCCCCCCc1cccc(CCCCCCCCC)[n+]1C
Ki [1]: 0.0034 µM | Kd [2]: 0.004 µM | kon ([3]; hek293, probe [3H]dofetilide): 300000 M⁻¹ s⁻¹ | koff ([4]; hek293, probe [3H]dofetilide): 0.00115 s⁻¹ | residence time ([5]; hek293, probe [3H]dofetilide): 14 min

CCCCCCCCCCc1cccc(CCCCCCCCCC)[n+]1C
Ki [1]: 0.017 µM | Kd [2]: 0.037 µM | kon ([3]; hek293): 28300 M⁻¹ s⁻¹ | koff ([4]; hek293): 0.00107 s⁻¹ | residence time ([5]; hek293): 16 min

CCCCCCCCCCCCc1cccc(CCCCCCCCCCCC)[n+]1C
Ki [1]: 0.108 µM | Kd [2]: 0.153 µM | kon ([3]; hek293, probe [3H]dofetilide): 3000 M⁻¹ s⁻¹ | koff ([4]; hek293, probe [3H]dofetilide): 0.000467 s⁻¹ | residence time ([5]; hek293, probe [3H]dofetilide): 36 min

CCCCCCCCCCC#Cc1cccc(C#CCCCCCCCCCC)[n+]1C
Ki [1]: 1.18 µM | Kd [2]: 4.26 µM | kon ([3]; hek293, probe [3H]dofetilide): 550 M⁻¹ s⁻¹ | koff ([4]; hek293, probe [3H]dofetilide): 0.002 s⁻¹ | residence time ([5]; hek293, probe [3H]dofetilide): 8.3 min

C(#Cc1cccc(C#Cc2ccc(-c3ccccc3)cc2)n1)c1ccc(-c2ccccc2)cc1
Ki [1]: > 100 µM

C[n+]1c(CCc2ccc(-c3ccccc3)cc2)cccc1CCc1ccc(-c2ccccc2)cc1
Ki [1]: 0.063 µM | Kd [2]: 0.06 µM | kon ([3]; hek293, probe [3H]dofetilide): 26700 M⁻¹ s⁻¹ | koff ([4]; hek293, probe [3H]dofetilide): 0.00163 s⁻¹ | residence time ([5]; hek293, probe [3H]dofetilide): 10 min

Cc1ccccc1-c1ccc(C#Cc2cccc(C#Cc3ccc(-c4ccccc4C)cc3)[n+]2C)cc1
Ki [1]: 0.577 µM | Kd [2]: 0.203 µM | kon ([3]; hek293): 5830 M⁻¹ s⁻¹ | koff ([4]; hek293): 0.00118 s⁻¹ | residence time ([5]; hek293): 14 min

COc1cccc(-c2ccc(C#Cc3cccc(C#Cc4ccc(-c5cccc(OC)c5)cc4)[n+]3C)cc2)c1
Ki [1]: 0.176 µM | Kd [2]: 0.125 µM | kon ([3]; hek293): 6170 M⁻¹ s⁻¹ | koff ([4]; hek293): 0.000783 s⁻¹ | residence time ([5]; hek293): 21 min

C[n+]1c(C#Cc2ccc(-c3cccc(Cl)c3)cc2)cccc1C#Cc1ccc(-c2cccc(Cl)c2)cc1
Ki [1]: 0.139 µM | Kd [2]: 0.135 µM | kon ([3]; hek293): 1380 M⁻¹ s⁻¹ | koff ([4]; hek293): 0.000183 s⁻¹ | residence time ([5]; hek293): 91 min

Cc1ccc(-c2ccc(C#Cc3cccc(C#Cc4ccc(-c5ccc(C)cc5)cc4)[n+]3C)cc2)cc1
Ki [1]: 0.303 µM | Kd [2]: 0.44 µM | kon ([3]; hek293, probe [3H]dofetilide): 1430 M⁻¹ s⁻¹ | koff ([4]; hek293, probe [3H]dofetilide): 0.00055 s⁻¹ | residence time ([5]; hek293, probe [3H]dofetilide): 30 min

C[n+]1c(C#Cc2ccc(-c3ccc(O)cc3)cc2)cccc1C#Cc1ccc(-c2ccc(O)cc2)cc1
Ki [1]: 0.153 µM | Kd [2]: 0.103 µM | kon ([3]; hek293, probe [3H]dofetilide): 8500 M⁻¹ s⁻¹ | koff ([4]; hek293, probe [3H]dofetilide): 0.000883 s⁻¹ | residence time ([5]; hek293, probe [3H]dofetilide): 19 min

C[n+]1c(C#Cc2ccc(-c3ccc(Cl)cc3)cc2)cccc1C#Cc1ccc(-c2ccc(Cl)cc2)cc1
Ki [1]: 0.071 µM | Kd [2]: 0.1 µM | kon ([3]; hek293): 2670 M⁻¹ s⁻¹ | koff ([4]; hek293): 0.000267 s⁻¹ | residence time ([5]; hek293): 63 min
